From the NIST ThermoML archive (doi:10.1007/s10765-012-1352-4)

Assay: xn = mol fraction of the nth substance listed
Details: 333.15 K, Gas, Loschmidt diffusion cell combined with holoholographic interferometry

[Ne] [neon] + [Ar]
binary diffusion coefficient [m2/s]
Details | 200 kPa | 500 kPa | 1000 kPa
x2 = 0.1 | 1.97e-10 | 7.82e-11 | 3.91e-11
x2 = 0.12 | 1.97e-10 | 7.8e-11 | 3.9e-11
x2 = 0.14 | 1.96e-10 | 7.79e-11 | 3.89e-11
x2 = 0.16 | 1.96e-10 | 7.77e-11 | 3.88e-11
x2 = 0.18 | 1.95e-10 | 7.76e-11 | 3.87e-11
x2 = 0.2 | 1.95e-10 | 7.74e-11 | 3.86e-11
x2 = 0.22 | 1.95e-10 | 7.72e-11 | 3.86e-11
x2 = 0.24 | 1.94e-10 | 7.7e-11 | 3.85e-11
x2 = 0.26 | 1.94e-10 | 7.69e-11 | 3.84e-11
x2 = 0.28 | 1.93e-10 | 7.67e-11 | 3.83e-11
x2 = 0.3 | 1.93e-10 | 7.65e-11 | 3.82e-11
x2 = 0.32 | 1.93e-10 | 7.63e-11 | 3.81e-11
x2 = 0.34 | 1.92e-10 | 7.6e-11 | 3.8e-11
x2 = 0.36 | 1.91e-10 | 7.57e-11 | 3.79e-11
x2 = 0.38 | 1.91e-10 | 7.53e-11 | 3.77e-11
x2 = 0.4 | 1.9e-10 | 7.48e-11 | 3.75e-11
x2 = 0.6 | 1.94e-10 | 7.82e-11 | 3.91e-11
x2 = 0.62 | 1.94e-10 | 7.81e-11 | 3.91e-11
x2 = 0.64 | 1.94e-10 | 7.8e-11 | 3.9e-11
x2 = 0.66 | 1.94e-10 | 7.8e-11 | 3.9e-11
x2 = 0.68 | 1.94e-10 | 7.79e-11 | 3.9e-11
x2 = 0.7 | 1.94e-10 | 7.79e-11 | 3.89e-11
x2 = 0.72 | 1.93e-10 | 7.79e-11 | 3.89e-11
x2 = 0.74 | 1.94e-10 | 7.8e-11 | 3.89e-11
x2 = 0.76 | 1.94e-10 | 7.8e-11 | 3.9e-11
x2 = 0.78 | 1.94e-10 | 7.8e-11 | 3.9e-11
x2 = 0.8 | 1.94e-10 | 7.8e-11 | 3.9e-11
x2 = 0.82 | 1.94e-10 | 7.81e-11 | 3.9e-11
x2 = 0.84 | 1.94e-10 | 7.81e-11 | 3.9e-11
x2 = 0.86 | 1.94e-10 | 7.82e-11 | 3.9e-11
x2 = 0.88 | 1.94e-10 | 7.82e-11 | 3.91e-11
x2 = 0.9 | 1.94e-10 | 7.82e-11 | 3.91e-11
